# Data published in patent US20120101134A1, “5-MEMBERED HETEROARYL DERIVATIVES USED AS SPHINGOSINE 1-PHOSPHATE RECEPTOR AGONISTS” (GLAXO GROUP LIMITED, priority 2009, published 2012).
# Target: T1, human Endothelial Differentiation Gene 1 (EDG1) (Homo sapiens, UniProt P21453)
# T1 construct: TEV protease site; Gal4-VP16 transcription factor; expressed in transfected cells; host or cells: EDG1-bla/U2OS (Tango GPCR-bla U2OS parental cell line)
# Assay: S1P1 Tango assay - 384 well format
# Format: cell-based
# Details: EDG1-bla/U2OS cells, agonist
# Experimental: S1P1 Tango assay—384 Well Format
# Recombinant EDG1-bla/U2OS cells (contain the human Endothelial Differentiation Gene 1 (EDG1) linked to a TEV protease site and a Gal4-VP16 transcription factor stably integrated into the Tango GPCR-bla U2OS parental cell line) were harvested from growth medium and passaged into assay medium (Invitrogen Freestyle Expression Medium). The cells were starved for 24 hours at 37° C., 5% CO2, harvested and resuspended in assay medium at a density of ˜200,000 cells/ml. All test compounds were dissolved in DMSO at a concentration of 10 mM and were prepared in 100% DMSO to provide 10 point dose response curves. Test compounds prepared by Bravo (Velocity11) were added to wells in columns 2-11 and 13-22; DMSO was added to wells in columns 12 and 23 as unstimulated controls and assay medium was added to wells in columns 1 and 24 as cell-free controls. An S1P1 agonist was added to wells in row 2, columns 2-11 as stimulated controls and test compounds were added to wells in row 2, columns 13-22 and rows 3-15, columns 2-11/13-22 (row 1 and 16 were empty and not used). Compounds in solution were added to the assay plate (Greiner 781090) using an Echo (Labcyte) dose-response program (50 nl/well). The unstimulated and cell-free controls were loaded with 50 nl/well pure DMSO to ensure that the DMSO concentration was constant across the plate for all assays.
# 50 μl of the cell suspension was added to each well in columns 2-23 of the plate (˜10,000 cells per well). 50 μl of assay medium was added to each well in the cell-free controls (columns 1 and 24). The cells were incubated overnight at 37° C./5% CO2.
# 10 μl of 6× substrate mixture (LiveBLAzer™-FRET B/G substrate (CCF4-AM) Cat #K1096 from Invitrogen, Inc.) was added to each well using Bravo and the plates incubated at room temperature for 2 h in the dark. The plate was finally read on EnVision using one excitation channel (409 nm) and two emission channels (460 nm and 530 nm).
# The blue/green emission ratio (460 nm/530 nm) was calculated for each well, by dividing the background-subtracted Blue emission values by the background-subtracted Green emission values. The dose response curve is based on sigmoidal dose-response model. All ratio data was normalized based upon the maximum emission ratio of positive control and minimum emission ratio of negative control (DMSO) on each plate. The intrinsic activity (IA) of each compound would be the normalized percentage of its maximum response after curve fitting.
# T1 sequence (P21453 whole entry, the tested form may be a part): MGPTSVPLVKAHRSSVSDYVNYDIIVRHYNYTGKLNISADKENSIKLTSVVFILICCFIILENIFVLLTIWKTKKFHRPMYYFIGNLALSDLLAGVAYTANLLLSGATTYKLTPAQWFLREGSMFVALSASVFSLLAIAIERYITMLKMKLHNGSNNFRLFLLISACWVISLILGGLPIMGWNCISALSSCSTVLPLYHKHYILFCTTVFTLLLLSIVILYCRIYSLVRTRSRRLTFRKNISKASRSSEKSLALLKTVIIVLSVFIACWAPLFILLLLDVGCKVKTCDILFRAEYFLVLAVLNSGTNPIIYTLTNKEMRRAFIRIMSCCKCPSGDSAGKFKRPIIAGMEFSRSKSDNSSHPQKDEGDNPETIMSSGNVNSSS
row,SMILES,EC50 [nM]
1,"CCc1c(CN(C)CC(=O)O)cccc1-c1cnc(-c2ccc(OC(C)C)c(Cl)c2)s1 [Example 54, N-{[3-(2-{3-chloro-4-[(1-methylethyl)oxy]phenyl}-1,3-thiazol-5-yl)-2-ethylphenyl]methyl}-N-methylglycine]",≤ 1000
2,"CCc1c(CN(C)CC(=O)O)cccc1-c1cnc(-c2ccc(OC(C)C)c(C#N)c2)s1 [Example 55, N-{[3-(2-{3-cyano-4-[(1-methylethyl)oxy]phenyl}-1,3-thiazol-5-yl)-2-ethylphenyl]methyl}-N-methylglycine]",≤ 100
3,"CCc1c(CN(C)CCC(=O)O)cccc1-c1cnc(-c2ccc(OC(C)C)c(C#N)c2)s1 [Example 57, N-{[3-(2-{3-cyano-4-[(1-methylethyl)oxy]phenyl}-1,3-thiazol-5-yl)-2-ethylphenyl]methyl}-N-methyl-β-alanine]",≤ 100
4,"CCc1c(-c2cnc(-c3ccc(OC(C)C)c(C#N)c3)s2)ccnc1CCCC(=O)O [Example 58, 4-[4-(2-{3-cyano-4-[(1-methylethyl)oxy]phenyl}-1,3-thiazol-5-yl)-3-ethyl-2-pyridinyl]butanoic acid]",≤ 1000

# Now from value to compound:
row,EC50 [nM],SMILES
1,≤ 10,"CCc1c(CCCC(=O)O)cccc1-c1cnc(-c2ccc(OC(C)C)c(Cl)c2)s1 [Example 52, 4-[3-(2-{3-chloro-4-[(1-methylethyl)oxy]phenyl}-1,3-thiazol-5-yl)-2-ethylphenyl]butanoic acid]"
2,≤ 10,"CCc1c(CCN(C)CC(=O)O)cccc1-c1cnc(-c2ccc(OC(C)C)c(C#N)c2)s1 [Example 53, N-{2-[3-(2-{3-cyano-4-[(1-methylethyl)oxy]phenyl}-1,3-thiazol-5-yl)-2-ethylphenyl]ethyl}-N-methylglycine]"
3,≤ 10,"CCc1c(CCN(C)CC(=O)O)cccc1-c1cnc(-c2ccc(OC(C)C)c(Cl)c2)s1 [Example 56, N-{2-[3-(2-{3-chloro-4-[(1-methylethyl)oxy]phenyl}-1,3-thiazol-5-yl)-2-ethylphenyl]ethyl}-N-methylglycine]"
4,≤ 1,"CCc1c(CCN(C)CCC(=O)O)cccc1-c1cnc(-c2ccc(OC(C)C)c(C#N)c2)s1 [Example 59, N-{2-[3-(2-{3-cyano-4-[(1-methylethyl)oxy]phenyl}-1,3-thiazol-5-yl)-2-ethylphenyl]ethyl}-N-methyl-b-alanine]"

# Target: T1, human Endothelial Differentiation Gene 1 (EDG1)
# Assay: S1P1 Tango assay - 96 well format
# Format: cell-based
# Details: EDG1-bla/U2OS cells, agonist
# Experimental: S1P1 Tango assay—96 Well Format
# Recombinant EDG1-bla/U2OS cells (contain the human Endothelial Differentiation Gene 1 (EDG1) linked to a TEV protease site and a Gal4-VP16 transcription factor stably integrated into the Tango GPCR-bla U2OS parental cell line) were suspended in assay medium (Invitrogen Freestyle Expression Medium) at a density of 312, 500 cells/ml. Add 100 μl/well of the assay medium to the cell-free control wells (column 12) and 100 μl/well of the cell suspension to the test compound wells (row 2-8, column 1-10), the unstimulated control wells (DMSO) (column 11), and stimulated control wells (SIP) (row 1, column 1-10) in a Corning black-well, clear bottom 96-well plate. Cells were incubated at 37° C., 5% CO2 for 44-48 h.
# Add 25 μl of 5× stock solution of test compounds in assay medium with 0.5% DMSO to the test compound wells, 25 μl of 5× stock solution of agonist (S1P) in assay medium with 0.5% DMSO to the stimulated compound wells, and 25 μl of 5× stock solution of 0.5% DMSO in assay medium to the unstimulated control and cell-free control wells.
# After incubation at 37° C., 5% CO2 for 5 h, 25 μl of 6× substrate mixture (6 μl Solution A (1 mg LiveBLAzer™-FRET B/G substrate (CCF4-AM) in 912 μl DMSO) plus 60 μl Solution B plus 934 μl Solution C) was added to each well and incubate at room temperature for 2 h in dark. The plate was finally read on EnVision for two emission channels (460 nm and 530 nm).
# All test compounds were dissolved in DMSO at a concentration of 10 mM and were prepared in 100% DMSO using a 1 in 5 dilution step to provide 10 point dose response curves. The dilutions were transferred to the assay plates ensuring that the DMSO concentration was constant across the plate for all assays.
# Calculate the blue/green emission ratio (460 nm/530 nm) for each well, by dividing the background-subtracted Blue emission values by the background-subtracted Green emission values. The dose response curve is based on sigmoidal dose-response model. […]
row,EC50 [nM],SMILES
1,> 1000,"Cc1c(C[C@@H](C)C(=O)O)cccc1-c1noc(-c2cnc(OC(C)C)c(Cl)c2)n1 [Example 3, (2R)-3-[3-(5-{5-chloro-6-[(1-methylethyl)oxy]-3-pyridinyl}-1,2,4-oxadiazol-3-yl)-2-methylphenyl]-2-methylpropanoic acid]"
2,> 1000,"Cc1c(CCCC(=O)O)cccc1-c1noc(-c2cnc(OC(C)C)c(Cl)c2)n1 [Example 4, 4-[3-(5-{5-chloro-6-[(1-methylethyl)oxy]-3-pyridinyl}-1,2,4-oxadiazol-3-yl)-2-methylphenyl]butanoic acid]"
3,> 1000,"CC(C)Oc1ccc(-c2nc(-c3ccnc(CCCC(=O)O)c3)no2)cc1C#N [Example 21, 4-[4-(5-{3-cyano-4-[(1-methylethyl)oxy]phenyl}-1,2,4-oxadiazol-3-yl)-2-pyridinyl]butanoic acid]"
